Values joined by “and” are separate entries in the source; they are usually repeats but may differ in a detail not shown here. Identical values can stand only once.
Experiments:
[1] = tested on: ∆pfeA(pMMBpfeA) cells (native PfeA); assay: 55Fe-enterobactin binding and uptake assay, ∆pfeA(pMMBpfeA); format: cell-based, Pseudomonas aeruginosa; conditions: cells not treated with CCCP, 500 nM ^55Fe-enterobactin, 30 min
Experimental: (§1) Fig. 6 Effects of PfeA mutation in vivo. a Analysis of changes in the transcription of pfeA gene. PAO1 strain, its corresponding deletion mutant ∆pfeA and deletion mutants carrying the expression plasmid of PfeA wild-type (∆pfeA(pMMBpfeA) or the R480A-Q482A mutant (∆pfeA(pMMBpfeAR480AQ482A)) were grown in CAA medium supplemented with 10 µM enterobactin. The data were normalised relative to the reference gene uvrD, and are representative of three independent experiments performed in triplicate (n = 3). The results are given as a ratio between the values obtained for ∆pfeA, ∆pfeA(pMMBpfeA) and ∆pfeA(pMMBpfeAR480AQ482A) over those obtained for the PAO1 strain. b ^55Fe-enterobactin binding at the bacterial surface. Cells were grown as in panel a, and were incubated for 15 min with 200 µM CCCP before initiation of transport assays by the addition of 500 nM ^55Fe-enterobactin. After 30 min incubation, the radioactivity accumulated in the bacteria was counted. The results are expressed as pmol of ^55Fe-enterobactin bound per ml of cells at an OD600 of 1. The experiments have been repeated three times. c ^55Fe-enterobactin binding and uptake. Cells were grown as in panel a, and were incubated with or without 200 µM CCCP before initiation of transport assays by the addition of 500 nM ^55Fe-enterobactin. After 30 min incubations, the radioactivity accumulated in the bacteria was counted. The results are expressed as pmol of ^55Fe-enterobactin bound and transported per ml of cells at an OD600 of 1. The experiments have been repeated three times
(§2) The complex was prepared at ^55Fe concentrations of 50 μM, with a siderophore:iron (mol:mol) ratio of 20:1. P. aeruginosa strains were first grown overnight at 30 °C in LB broth, and were then washed, resuspended and cultured overnight at 30 °C in iron-deficient CAA medium (casamino acid medium, composition: 5 g.l^−1 low-iron CAA (Difco), 1.46 g.l^−1 K2HPO4 3H2O, 0.25 g.l^−1 MgSO4 7H2O) and in the presence of 10 µM enterobactin to induce the expression of PfeA. CAA is a highly iron-restricted medium with iron concentrations of 20 nM[59]. Afterwards bacteria were washed with 50 mM Tris-HCl pH 8.0, and diluted to an OD600 of 1. Cells solutions were divided in two, one batch being treated with 200 μM CCCP. This compound collapses the proton-motive force across the bacterial cell membranes, inhibiting TonB-dependent iron uptake. Binding and transport assays were initiated by adding 500 nM ^55Fe-enterobactin to the bacterial solutions treated or not with CCCP. After 30 min of incubations, cells were centrifuged, and the radioactivity associated to the bacteria was monitored in the cell pellets. For the cells treated with CCCP, the radioactivity in the cell pellets corresponds to the binding of ^55Fe-enterobactin to P. aeruginosa cell surface, since no uptake occurs. In the absence of CCCP, the radioactivity associated to the cells corresponds to ^55Fe-enterobactin binding to the cell surface and the uptake into the bacteria.

[2] = tested on: ∆pfeA(pMMBpfeAR480AQ482A) cells (double-mutant PfeA); assay: 55Fe-enterobactin binding and uptake assay, ∆pfeA(pMMBpfeAR480AQ482A); format: cell-based, Pseudomonas aeruginosa; conditions: 500 nM ^55Fe-enterobactin, 30 min
Experimental: as §1, §2

[3] = set-up: method as in doi:10.1021/ja00514a037, PMID 12453412; conditions: cited from earlier work
pfeA gene = assay: RT-qPCR of pfeA gene transcription in strains grown with 10 µM enterobactin; format: cell-based, Pseudomonas aeruginosa; conditions: replicate values, Figure 6a
Experimental: Fig. 6 Effects of PfeA mutation in vivo. a Analysis of changes in the transcription of pfeA gene. PAO1 strain, its corresponding deletion mutant ∆pfeA and deletion mutants carrying the expression plasmid of PfeA wild-type (∆pfeA(pMMBpfeA) or the R480A-Q482A mutant (∆pfeA(pMMBpfeAR480AQ482A)) were grown in CAA medium supplemented with 10 µM enterobactin. The data were normalised relative to the reference gene uvrD, and are representative of three independent experiments performed in triplicate (n = 3). The results are given as a ratio between the values obtained for ∆pfeA, ∆pfeA(pMMBpfeA) and ∆pfeA(pMMBpfeAR480AQ482A) over those obtained for the PAO1 strain. b ^55Fe-enterobactin binding at the bacterial surface. Cells were grown as in panel a, and were incubated for 15 min with 200 µM CCCP before initiation of transport assays by the addition of 500 nM ^55Fe-enterobactin. After 30 min incubation, the radioactivity accumulated in the bacteria was counted. The results are expressed as pmol of ^55Fe-enterobactin bound per ml of cells at an OD600 of 1. The experiments have been repeated three times. c ^55Fe-enterobactin binding and uptake. Cells were grown as in panel a, and were incubated with or without 200 µM CCCP before initiation of transport assays by the addition of 500 nM ^55Fe-enterobactin. After 30 min incubations, the radioactivity accumulated in the bacteria was counted. The results are expressed as pmol of ^55Fe-enterobactin bound and transported per ml of cells at an OD600 of 1. The experiments have been repeated three times […]
Specific pfeA gene transcription was measured by reverse transcription-quantitative PCR (RT-qPCR) from 16 h cultures in CAA medium as described in Supplementary Methods. […]
The supernatant […]
was discarded, and inner membrane proteins were solubilized in lysis buffer with 1% (w/v) N-lauroylsarkosine (Sigma-Aldrich). […]
Quantitative real-time PCR. […] The amounts of specific cDNA were assessed in a StepOne Plus instrument (Applied Biosystems) by using a Power Sybr Green PCR Master Mix […]

O=C(N[C@H]1COC(=O)[C@@H](NC(=O)c2cccc(O)c2O)COC(=O)[C@@H](NC(=O)c2cccc(O)c2O)COC1=O)c1cccc(O)c1O [Enterobactin, enterobactin]
^55Fe-enterobactin binding and uptake [1]: actively taken up | ^55Fe-enterobactin binding at the bacterial surface ([2]; CCCP treated cells (200 µM)): does not bind | ^55Fe-enterobactin binding and uptake ([2]; cells not treated with CCCP): not competent for the uptake | stability when not bound to iron [3]: easily degraded | pfeA gene transcription (RT-qPCR) (pfeA gene; strain ΔpfeA (pMMBpfeA R480AQ482A)): 105.534 and 104.018 and 99.7495 and 101.79 and 78.5683 and 111.303 and 100.693 and 97.5736 and 107.445 | pfeA gene transcription (RT-qPCR) (pfeA gene; strain ΔpfeA (pMMBpfeA)): 181.293 and 171.592 and 180.688 and 175.586 and 141.721 and 155.679 and 152.232 and 181.628 and 183.778 | pfeA gene transcription (RT-qPCR) (pfeA gene; strain ΔpfeA): 0.006806 and 0.03712 and 0.02449 and 0.03211 and 0.01571 and 0.01618 and 0.0116 and 0.02148 and 0.01134
